Target: Glutamate carboxypeptidase 2 (Homo sapiens, UniProt Q04609)
Assay: Enzymatic Assay for In Vitro Evaluation of PSMA Inhibitors: The inhibitory activity of all compounds was determined using a fluorescent assay of human PSMA activity. The enzyme used in the assay was purchased from R&D Systems and stored at −80° C. The PSMA activity was assayed in a two-step process. In the first step, aliquots of enzyme (0.2 μg/mL) were incubated for 1 h at 37° C. in 50 mM HEPES, 0.1 M NaCl, pH 7.5, in the presence of 20 μM NAAG and the given inhibitor, in a volume of 250 μL, to allow for the accumulation of glutamate produced in the PSMA reaction. In the second step, the amount of accumulated glutamate was measured using the OPA reaction, and the fluorescence was read with a SpectraMax fluorescent plate reader using excitation at 330 nm and emission at 450 nm. The final Ki values for each inhibitor were calculated from the respective IC50 values using the Cheng and Prusoff equation.

Glutamate carboxypeptidase 2, sequence (Q04609 whole entry): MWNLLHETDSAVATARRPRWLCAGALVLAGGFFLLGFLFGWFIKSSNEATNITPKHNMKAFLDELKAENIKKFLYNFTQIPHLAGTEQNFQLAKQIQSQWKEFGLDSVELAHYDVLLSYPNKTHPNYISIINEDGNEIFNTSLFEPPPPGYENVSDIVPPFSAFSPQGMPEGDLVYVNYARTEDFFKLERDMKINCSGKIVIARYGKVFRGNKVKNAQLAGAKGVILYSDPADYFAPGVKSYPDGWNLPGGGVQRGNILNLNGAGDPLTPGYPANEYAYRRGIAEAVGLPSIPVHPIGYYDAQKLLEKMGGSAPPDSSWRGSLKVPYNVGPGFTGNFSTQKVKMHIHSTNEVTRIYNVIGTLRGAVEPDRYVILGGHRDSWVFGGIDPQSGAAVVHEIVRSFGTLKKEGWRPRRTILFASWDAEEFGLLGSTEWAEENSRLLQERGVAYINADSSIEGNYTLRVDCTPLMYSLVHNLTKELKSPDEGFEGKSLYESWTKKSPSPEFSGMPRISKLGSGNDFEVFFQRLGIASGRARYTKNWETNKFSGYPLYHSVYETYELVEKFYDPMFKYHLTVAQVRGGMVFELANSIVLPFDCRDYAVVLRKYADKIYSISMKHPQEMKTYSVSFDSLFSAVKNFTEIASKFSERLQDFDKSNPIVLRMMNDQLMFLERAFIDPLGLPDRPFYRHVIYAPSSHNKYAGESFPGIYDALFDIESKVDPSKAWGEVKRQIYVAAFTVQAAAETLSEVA

CN(C(=O)N[C@@H](CCC(=O)O)C(=O)O)[C@@H](CCCCNC(=O)CCCCCn1cc(CCCF)nn1)C(=O)O
Ki: 625 nM
